We go through six compounds from the NIST ThermoML archive (doi:10.1016/j.jct.2014.02.012).

± gives the expanded uncertainty stated by the source.

For series [1] the following is noted: 100 kPa, Liquid mixture 1, Wilhelmy plate method.
The conditions of series [2]: 298.15 K; for surface tension liquid-gas: Wilhelmy plate method; for viscosity / mass density: 101.33 kPa, Liquid; for viscosity: Capillary tube (Ostwald / Ubbelohde) method; for mass density: Vibrating tube method.

Consider `CCCCCCCCCCCCCC[P+](CCCCCC)(CCCCCC)CCCCCC.O=S(=O)([N-]S(=O)(=O)C(F)(F)F)C(F)(F)F` + O, for which the interfacial tension in series [1] (298.15 K) was 27.1 ± 0.2 mN/m; in series [1] (348.15 K), 25.6 ± 0.2 mN/m.

By surface tension liquid-gas is commonly meant the force per length acting along the surface. What is called viscosity is the internal friction of a fluid under shear. For orientation: mass density means mass per unit of volume. As for `CCCCCCCCCCCCCC[P+](CCCCCC)(CCCCCC)CCCCCC.O=S(=O)([N-]S(=O)(=O)C(F)(F)F)C(F)(F)F`, in series [2], the surface tension liquid-gas stood at 30.9 ± 0.3 mN/m, the viscosity amounted to 311.4 ± 11 mPa·s and the mass density was 1065.5 ± 0.28 kg/m3.

As for `CCCCCCCCCCCCCC[P+](CCCCCC)(CCCCCC)CCCCCC.O=S(=O)([N-]S(=O)(=O)C(F)(F)F)C(F)(F)F` + CCCCCCCCCCCC, the interfacial tension is 0.9 ± 0.2 mN/m in series [1] (298.15 K) and 0.6 ± 0.2 mN/m in series [1] (348.15 K).

`CCCCCCCCCCCC` [dodecane]: in series [2], the surface tension liquid-gas is recorded as 24.9 ± 0.2 mN/m, the viscosity came out at 1.356 ± 0.029 mPa·s and the mass density is listed as 745.27 ± 0.24 kg/m3.

Turning to `CCCCCCCCCCCC` [dodecane] + O, the interfacial tension was found to be 52.2 ± 0.3 mN/m in series [1] (298.15 K) and 49.6 ± 0.3 mN/m in series [1] (348.15 K).

On to `O` [water], for which, in series [2], the surface tension liquid-gas is reported as 72 ± 0.2 mN/m and the viscosity is recorded as 0.904 ± 0.019 mPa·s.
